# From US20190223483A1, “SENSORY MODIFIER COMPOUNDS” (CARGILL, INCORPORATED, priority 2017, published 2019)
# Values joined by “and” are separate entries in the source; they are usually repeats but may differ in a detail not shown here. Equal values may be shown once.
# Key:
# [1] = Sweetness intensity (SEV) by trained panel against 1%-14% sucrose standards; type: in vivo; conditions: for sweetness intensity plateau (SEV): Reb M alone, at about 800 ppm; for sweetness intensity (SEV): about 1400 ppm Reb M with about 1400 ppm sensory modifier
# Protocol: In some aspects, the amount of sensory modifier compound effective to increase sweetness intensity can be determined by panel testing with trained panelists. For example, […] can be determined by the following test: Solutions were prepared by dissolving steviol glycosides and sensory modifier compounds into reverse osmosis water at the indicated concentrations and/or ratios. Solutions were tested by a panel of at least four individuals that are highly-trained in tasting steviol glycoside solutions. The highly-trained panelists were trained against a standard range of 1%, 2%, 3%, 4%, 5%, 6%, 7%, 8%, 9%, 10%, 11%, 12%, 13%, and 14% sucrose solutions corresponding to 1, 2, 3, 4, 5, 6, 7, 8, 9, 10, 11, 12, 13, and 14 SEV. To test each solution, the highly-trained panelists dispensed approximately 2 mL of each solution into their own mouths by transfer pipet, dispersed the solution by moving their tongues, and recorded an SEV value for each solution based on comparison to the 1%, 2%, 3%, 4%, 5%, 6%, 7%, 8%, 9%, 10%, 11%, 12%, 13%, and 14% sucrose solutions. Between tasting solutions, the panelists were able to cleanse their palates with water. […] For sweetness intensity, the panelists focused on, and only recorded, the sweetness intensity in SEV that they tasted while disregarding other attributes of the solution. At the highest concentrations of steviol glycoside and sensory modifier compound, the panelists found other attributes to be highly noticeable, but recorded the isolated sweetness intensity for each solution despite these other attributes. Exemplary tests are described below in Example 1.
# All solutions were prepared by dissolving steviol glycosides and sensory modifier compounds into reverse osmosis water at the indicated concentrations and/or ratios.
# For sweetness intensity, the solutions were tested by a panel of at least four individuals that are highly-trained in tasting steviol glycoside solutions. The highly-trained panelists were trained against a standard range of 1%, 2%, 3%, 4%, 5%, 6%, 7%, 8%, 9%, 10%, 11%, 12%, 13%, and 14% sucrose solutions corresponding to 1, 2, 3, 4, 5, 6, 7, 8, 9, 10, 11, 12, 13, and 14 SEV. To test each solution, the highly-trained panelists dispensed approximately 2 mL of each solution into their own mouths by transfer pipet, dispersed the solution by moving their tongues, and recorded an SEV value for each solution based on comparison to the 1%, 2%, 3%, 4%, 5%, 6%, 7%, 8%, 9%, 10%, 11%, 12%, 13%, and 14% sucrose solutions. Between tasting solutions, the panelists were able to cleanse their palates with water. […] For this example, the panelists focused on and only recorded the sweetness intensity in SEV that they tasted while disregarding other attributes of the solution. At the highest concentrations of steviol glycoside and sensory modifier compound, the panelists found other attributes to be highly noticeable, but recorded the isolated sweetness intensity for each solution despite these other attributes.
# [2] = Roundtable assessment of botanical notes (scale 0 to 5); type: in vivo; parameters: key: 0 = none; 1 = trace/faint; 2 = slight; 3 = moderate; 4 = definite; 5 = strong; 6 = extreme
# Protocol: For other sweetness attributes, the solutions were tested by a panel of at least four individuals that are highly-trained in tasting steviol glycoside solutions. The highly-trained panelists used a roundtable methodology to assess each sweetness attribute. To test each solution, the highly-trained panelists dispensed approximately 2 mL of each solution into their own mouths by transfer pipet, dispersed the solution by moving their tongues, and recorded a value for the particular sweetness attribute being tested. Between tasting solutions, the panelists were able to cleanse their palates with water. For each sweetness attribute, the panelist agreed on a descriptive scale with relative intensities assigned for each sweetness attribute and then recorded the values for each sweetness attribute against this. For example, this roundtable assessment of sweetness linger assigned a scale of 0 to 6 with a score of 0 indicating no sweetness linger and a score of 6 indicating extreme sweetness linger. Roundtable assessment of sweetness linger assigned a scale of 0 to 6 with a score of 0 indicating no sweetness linger and a score of 6 indicating extreme sweetness linger (0=none, 1=trace, 2=slight, 3=moderate, 4=definite, 5=strong, 6=extreme). Roundtable assessment of rounded assigned a scale of 0 to 3 with a score of 0 indicating spikey and a score of 3 indicating desirable rounded (0=none, 1=mostly spikey, some rounded, 2=mostly rounded, some spikey, 3=rounded). Roundtable assessment of mouthfeel assigned a scale of 0 to 2 with a score of 0 indicating water and a score of 2 indicating syrupy (0=water, 1=sucrosey, 2=syrupy). Roundtable assessment of bitterness assigned a scale of 0 to 6 with a score of 0 indicating no bitterness and a score of 6 indicating extreme sweetness linger (0=none, 1=trace, 2=slight, 3=moderate, 4=definite, 5=strong, 6=extreme). Roundtable assessment of off tastes assigned a scale of 0 to 6 with a score of 0 indicating no bitterness and a score of 6 indicating extreme off tastes (0=none, 1=trace, 2=slight, 3=moderate, 4=definite, 5=strong, 6=extreme).
# Roundtable assessment of botanical notes assigned a scale of 0 to 5 with a score of 0 indicating no botanical notes and a score of 5 indicating strong (0=none, 1=trace, 2=slight, 3=moderate, 4=definite, 5=strong).
# A series of assays were carried out to characterize botanical notes of sensory modifier compound (0=none, 1=trace/faint, 2=slight, 3=moderate, 4=definite, 5=strong) in steviol glycoside compositions using the roundtable methodology described in Example 1. […] Solutions of steviol glycosides and sensory modifier compound were prepared at increasing ratios of sensory modifier to steviol glycoside by weight. […] The concentration of steviol glycosides was 700 ppm in each solution. The solutions were tested for botanical notes.
# [3] = RebM 700 ppm + cichoric acid (tartaric backbone) 514 ppm
# [4] = RebM 700 ppm + cichoric acid (tartaric backbone) 772 ppm
# [5] = RebM 700 ppm + cichoric acid (tartaric backbone) […]
# [6] = RebM 700 ppm + rosmarinic acid 195 ppm
# [7] = RebM 700 ppm + rosmarinic acid 391 ppm
# [8] = RebM 700 ppm + rosmarinic acid 586 ppm
# [9] = steviol glycoside 700 ppm + yerba mate mono/dicaffeoylquinic acids 236 ppm
# [10] = steviol glycoside 700 ppm + yerba mate mono/dicaffeoylquinic acids 300 ppm
# [11] = steviol glycoside 700 ppm + yerba mate mono/dicaffeoylquinic acids 400 ppm
# [12] = steviol glycoside 700 ppm + yerba mate mono/dicaffeoylquinic acids 472 ppm
# [13] = steviol glycoside 700 ppm + yerba mate mono/dicaffeoylquinic acids 500 ppm
# [14] = steviol glycoside 700 ppm + yerba mate mono/dicaffeoylquinic acids 600 ppm
# [15] = steviol glycoside 700 ppm + yerba mate mono/dicaffeoylquinic acids 700 ppm
# [16] = steviol glycoside 700 ppm + yerba mate mono/dicaffeoylquinic acids 708 ppm
# [17] = steviol glycoside 700 ppm + yerba mate mono/dicaffeoylquinic acids 800 ppm
# [18] = steviol glycoside 700 ppm, sensory modifier 0 ppm
# [19] = steviol glycoside 700 ppm + yerba mate mono/dicaffeoylquinic acids 270 ppm
# [20] = steviol glycoside 700 ppm + yerba mate mono/dicaffeoylquinic acids 540 ppm
# [21] = steviol glycoside 700 ppm + yerba mate mono/dicaffeoylquinic acids 810 ppm
# [22] = steviol glycoside 700 ppm + yerba mate mono/dicaffeoylquinic acids 630 ppm
# [23] = steviol glycoside 700 ppm + yerba mate mono/dicaffeoylquinic acids 946 ppm
# [24] = steviol glycoside 700 ppm + yerba mate mono/dicaffeoylquinic acids […]
smiles,measurement,setting,value
"C=C1C[C@@]23CC[C@H]4[C@@](C)(CCC[C@@]4(C)C(=O)O[C@@H]4O[C@H](CO)[C@@H](O)[C@H](O[C@@H]5O[C@H](CO)[C@@H](O)[C@H](O)[C@H]5O)[C@H]4O[C@@H]4O[C@H](CO)[C@@H](O)[C@H](O)[C@H]4O)[C@@H]2CC[C@]1(O[C@@H]1O[C@H](CO)[C@@H](O)[C@H](O[C@@H]2O[C@H](CO)[C@@H](O)[C@H](O)[C@H]2O)[C@H]1O[C@@H]1O[C@H](CO)[C@@H](O)[C@H](O)[C@H]1O)C3 [RebM, Rebaudioside M]",sweetness intensity plateau (SEV),[1]; listed as Reb M,about 11
same,sweetness intensity plateau (SEV),[1]; listed as rebaudioside M,~11
same,SEV,[1]; RebM 100 ppm + yerba mate mono/dicaffeoylquinic acids 100 ppm (1:1),3.5
same,SEV,"[1]; RebM 100 ppm, no sensory modifier",3.25
same,SEV,[1]; RebM 200 ppm + yerba mate mono/dicaffeoylquinic acids 200 ppm (1:1),6
same,SEV,"[1]; RebM 200 ppm, no sensory modifier",4.5
same,SEV,[1]; RebM 300 ppm + yerba mate mono/dicaffeoylquinic acids 300 ppm (1:1),7.5
same,SEV,"[1]; RebM 300 ppm, no sensory modifier",5.75
same,SEV,[1]; RebM 400 ppm + yerba mate mono/dicaffeoylquinic acids 400 ppm (1:1),8.5
same,SEV,"[1]; RebM 400 ppm, no sensory modifier",7.75
same,SEV,[1]; RebM 500 ppm + yerba mate mono/dicaffeoylquinic acids 500 ppm (1:1),9.25
same,SEV,"[1]; RebM 500 ppm, no sensory modifier",9
same,SEV,[1]; RebM 600 ppm + yerba mate mono/dicaffeoylquinic acids 600 ppm (1:1),10
same,SEV,"[1]; RebM 600 ppm, no sensory modifier",9.5
same,SEV,[1]; [3],10
same,SEV,[1]; [4],9
same,SEV,[1]; [5],10
same,SEV,[1]; [6],10.5
same,SEV,[1]; [7],10.25
same,SEV,[1]; [8],10.25
same,SEV,[1]; RebM 700 ppm + yerba mate mono/dicaffeoylquinic acids 700 ppm (1:1),10.5
same,SEV,"[1]; RebM 700 ppm, no sensory modifier",10.5
same,SEV,[1]; RebM 800 ppm + yerba mate mono/dicaffeoylquinic acids 800 ppm (1:1),10.5
same,SEV,"[1]; RebM 800 ppm, no sensory modifier",10.75
same,SEV,[1]; RebM 900 ppm + yerba mate mono/dicaffeoylquinic acids 900 ppm (1:1),11
same,SEV,"[1]; RebM 900 ppm, no sensory modifier",11
same,SEV,[1]; RebM 1000 ppm + yerba mate mono/dicaffeoylquinic acids 1000 ppm (1:1),11.5
same,SEV,"[1]; RebM 1000 ppm, no sensory modifier",11
same,SEV,[1]; RebM 1100 ppm + yerba mate mono/dicaffeoylquinic acids 1100 ppm (1:1),12
same,SEV,"[1]; RebM 1100 ppm, no sensory modifier",11
same,SEV,[1]; RebM 1200 ppm + yerba mate mono/dicaffeoylquinic acids 1200 ppm (1:1),12.25
same,SEV,"[1]; RebM 1200 ppm, no sensory modifier",11
same,SEV,[1]; RebM 1300 ppm + yerba mate mono/dicaffeoylquinic acids 1300 ppm (1:1),12.5
same,SEV,[1]; RebM 1400 ppm + yerba mate mono/dicaffeoylquinic acids 1400 ppm (1:1),13
same,SEV,[1]; RebM 1500 ppm + yerba mate mono/dicaffeoylquinic acids 1500 ppm (1:1),13
same,SEV,[1]; RebM 1600 ppm + yerba mate mono/dicaffeoylquinic acids 1600 ppm (1:1),13
same,sweetness intensity (SEV),[1]; listed as Reb M,about 13
same,sweetness intensity (SEV),[1]; listed as rebaudioside M,~13
same,SEV,[1]; [9],10 and 10.5
same,SEV,[1]; [10],10.25
same,SEV,[1]; [11],10.25
same,SEV,[1]; [12],10
same,SEV,[1]; [13],10.00
same,SEV,[1]; [14],10.5
same,SEV,[1]; [15],10.5 and 10
same,SEV,[1]; [16],10
same,SEV,[1]; [17],10.5
same,SEV,[1]; [18],10.5
same,Botanical notes,[2]; [3],4
same,Botanical notes,[2]; [4],5
same,Botanical notes,[2]; [5],3
same,Botanical notes,[2]; [6],2
same,Botanical notes,[2]; [7],3
same,Botanical notes,[2]; [8],2
same,Botanical notes,"[2]; RebM 700 ppm, quinic backbone modifier between 0 ppm and about 400 ppm",imperceptible
same,Botanical notes,[2]; [9],Not Observed
same,Botanical notes,[2]; [10],0
same,Botanical notes,[2]; [11],0
same,Botanical notes,[2]; [12],1
same,Botanical notes,[2]; [13],0
same,Botanical notes,[2]; [14],2
same,Botanical notes,[2]; [15],2
same,Botanical notes,[2]; [16],2
same,Botanical notes,[2]; [17],2
same,Botanical notes,[2]; [18],0
"C=C1C[C@@]23CC[C@H]4[C@@](C)(CCC[C@@]4(C)C(=O)O[C@@H]4O[C@H](CO)[C@@H](O)[C@H](O)[C@H]4O[C@@H]4O[C@H](CO)[C@@H](O)[C@H](O)[C@H]4O)[C@@H]2CC[C@]1(O[C@@H]1O[C@H](CO)[C@@H](O)[C@H](O[C@@H]2O[C@H](CO)[C@@H](O)[C@H](O)[C@H]2O)[C@H]1O[C@@H]1O[C@H](CO)[C@@H](O)[C@H](O)[C@H]1O)C3 [RebD, Rebaudioside D]",SEV,[1]; [19],8.5
same,SEV,[1]; [20],8.5
same,SEV,[1]; [21],8.5
same,SEV,[1]; [18],8
same,Botanical notes,"[2]; Reb D 700 ppm, 0 ppm to about 500 ppm sensory modifier",no perceptible botanical notes
same,Botanical notes,"[2]; Reb D 700 ppm, about 800 ppm sensory modifier",slight
same,Botanical notes,[2]; [19],0
same,Botanical notes,[2]; [20],0
same,Botanical notes,[2]; [21],2
same,Botanical notes,[2]; [18],Not observed
"C=C1C[C@@]23CC[C@H]4[C@@](C)(CCC[C@@]4(C)C(=O)O[C@@H]4O[C@H](CO)[C@@H](O)[C@H](O)[C@H]4O)[C@@H]2CC[C@]1(O[C@@H]1O[C@H](CO)[C@@H](O)[C@H](O[C@@H]2O[C@H](CO)[C@@H](O)[C@H](O)[C@H]2O)[C@H]1O[C@@H]1O[C@H](CO)[C@@H](O)[C@H](O)[C@H]1O)C3 [RebA, Rebaudioside A]",SEV,[1]; [22],7
same,SEV,[1]; [23],7
same,SEV,[1]; [24],7
same,SEV,[1]; [18],7
same,Botanical notes,[2]; [22],1
same,Botanical notes,[2]; [23],3
same,Botanical notes,[2]; [24],Not observed
same,Botanical notes,[2]; [18],Not observed
